We go through 22 compounds from ChEMBL document CHEMBL4190323, “New racemic annulated pyrazolo[1,2-b]phthalazines as tacrine-like AChE inhibitors with potential use in Alzheimer's disease” (Eur J Med Chem, 2017).

Activity calls are given as the source filed them. No cut-off for these calls is given here. A value given as a limit tells only on which side of the number the result lay.

The target in data set [1] is T1, Acetylcholinesterase (Electrophorus electricus, UniProt O42275). Kind of data set: Inhibition of electric eel AChE using acetylthiocholine iodide as substrate preincubated for 10 mins followed by substrate addition measured for 6 mins by Ellman's method.
In data set [2] the target is Cholinesterase (Equus caballus, UniProt P81908). Kind of data set: Inhibition of equine serum BuChE using butyrylthiocholine iodide as substrate preincubated for 10 mins followed by substrate addition measured for 6 mins by Ellman's method.
Data set [3] has as its system PC-12. Kind of data set: Neuroprotective activity in rat PC12 cells assessed as decrease in H2O2 mediated apoptosis at 10 uM preincubated for 3 hrs followed by H2O2 challenge measured after 24 hrs by MTT assay. Type of data set: functional, cell-based.
Data set [4] is described as follows: in vitro. As to conditions: human, HepG2 cells.
Description: Cytotoxicity against human HepG2 cells assessed as cell viability at 1 uM after 24 hrs by MTT assay relative to control
Data set [5] can be described thus: in vitro. As to conditions: human, HepG2 cells. The source holds these as a separate data set.
Description: Cytotoxicity against human HepG2 cells assessed as cell viability at 5 uM after 24 hrs by MTT assay relative to control
Data set [6] can be described thus: in vitro. Particulars: human, HepG2 cells. This is another data set of the same source.
Description: Cytotoxicity against human HepG2 cells assessed as cell viability at 10 uM after 24 hrs by MTT assay relative to control
Data set [7] in a line: in vitro. Particulars: human, HepG2 cells. The source holds these as a separate data set.
Description: Cytotoxicity against human HepG2 cells assessed as cell viability at 25 uM after 24 hrs by MTT assay relative to control
Data set [8] in a line: in vitro. As to conditions: human, HepG2 cells. This is another data set of the same source.
Description: Cytotoxicity against human HepG2 cells assessed as cell viability at 50 uM after 24 hrs by MTT assay relative to control
Data set [9] is described as follows: in vitro. Particulars: human, HepG2 cells. This is another data set of the same source.
Description: Cytotoxicity against human HepG2 cells assessed as cell viability at 100 uM after 24 hrs by MTT assay relative to control
A short description of data set [10]: in vitro. As to conditions: human, HepG2 cells. The source holds these as a separate data set.
Description: Cytotoxicity against human HepG2 cells assessed as cell viability at 300 uM after 24 hrs by MTT assay relative to control
Data set [11] deals with Acetylcholinesterase (Electrophorus electricus) (UniProt O42275). The experiment in a line: Potency index, ratio of IC50 for tacrine to IC50 for test compound for electric eel AChE.
For data set [12], the target named is T1, Acetylcholinesterase. The experiment in a line: Mixed-type inhibition of electric eel AChE using acetylthiocholine iodide as substrate preincubated for 10 mins followed by substrate addition measured for 6 mins by Lineweaver-Burk plot analysis.
The test system of data set [13] is PC-12. Kind of data set: Neuroprotective activity in rat PC12 cells assessed as decrease in H2O2-mediated apoptosis at 100 uM preincubated for 3 hrs followed by H2O2 challenge measured after 24 hrs by MTT assay. The class given is functional, cell-based.
In data set [14] the test system is PC-12. Kind of data set: Neuroprotective activity in rat PC12 cells assessed as decrease in H2O2 mediated apoptosis at 1 uM preincubated for 3 hrs followed by H2O2 challenge measured after 24 hrs by MTT assay. The class given is functional, cell-based.
The subject of data set [15] is PC-12. Kind of data set: Neurotoxicity in rat PC12 cells assessed as reduction in cell viability at 1 to 10 uM after 24 hrs by MTT assay. Type of data set: toxicity, cell-based. Particulars: pc-12, 24 h.

Sequence of Cholinesterase (P81908 whole entry): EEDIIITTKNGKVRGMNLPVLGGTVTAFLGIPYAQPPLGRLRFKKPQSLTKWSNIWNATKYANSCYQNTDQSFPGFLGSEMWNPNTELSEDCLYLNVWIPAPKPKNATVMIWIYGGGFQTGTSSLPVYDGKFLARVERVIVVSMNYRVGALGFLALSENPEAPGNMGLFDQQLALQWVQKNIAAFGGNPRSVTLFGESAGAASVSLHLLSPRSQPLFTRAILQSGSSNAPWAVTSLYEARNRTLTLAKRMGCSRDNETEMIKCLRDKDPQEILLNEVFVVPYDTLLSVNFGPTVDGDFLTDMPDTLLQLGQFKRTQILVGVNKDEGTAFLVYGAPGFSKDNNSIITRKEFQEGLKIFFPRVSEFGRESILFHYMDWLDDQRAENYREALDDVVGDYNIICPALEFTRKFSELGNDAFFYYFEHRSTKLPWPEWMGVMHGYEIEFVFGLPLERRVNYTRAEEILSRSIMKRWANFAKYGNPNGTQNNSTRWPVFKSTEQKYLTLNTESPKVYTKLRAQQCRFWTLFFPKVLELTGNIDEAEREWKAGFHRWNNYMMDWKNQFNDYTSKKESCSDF
T1 sequence (O42275 whole entry): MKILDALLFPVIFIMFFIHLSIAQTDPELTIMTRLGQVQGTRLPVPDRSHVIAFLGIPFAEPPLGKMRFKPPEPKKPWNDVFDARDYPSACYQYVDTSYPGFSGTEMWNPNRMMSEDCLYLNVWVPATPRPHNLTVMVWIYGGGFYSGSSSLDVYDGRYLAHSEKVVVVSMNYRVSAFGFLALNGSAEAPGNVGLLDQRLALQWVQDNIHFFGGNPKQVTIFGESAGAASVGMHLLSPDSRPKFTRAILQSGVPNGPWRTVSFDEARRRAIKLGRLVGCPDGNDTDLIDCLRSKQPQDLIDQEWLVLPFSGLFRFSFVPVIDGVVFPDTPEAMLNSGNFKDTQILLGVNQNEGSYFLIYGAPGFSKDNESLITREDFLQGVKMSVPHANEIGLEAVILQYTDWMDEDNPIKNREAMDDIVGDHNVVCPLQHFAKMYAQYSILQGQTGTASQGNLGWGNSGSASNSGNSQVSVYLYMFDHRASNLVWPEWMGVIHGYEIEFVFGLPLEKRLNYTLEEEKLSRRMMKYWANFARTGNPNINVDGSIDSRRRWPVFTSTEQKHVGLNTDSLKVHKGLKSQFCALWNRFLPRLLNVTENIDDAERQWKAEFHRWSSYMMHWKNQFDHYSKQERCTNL
Sequence of Acetylcholinesterase (Electrophorus electricus) (O42275 24-633 limits assumed): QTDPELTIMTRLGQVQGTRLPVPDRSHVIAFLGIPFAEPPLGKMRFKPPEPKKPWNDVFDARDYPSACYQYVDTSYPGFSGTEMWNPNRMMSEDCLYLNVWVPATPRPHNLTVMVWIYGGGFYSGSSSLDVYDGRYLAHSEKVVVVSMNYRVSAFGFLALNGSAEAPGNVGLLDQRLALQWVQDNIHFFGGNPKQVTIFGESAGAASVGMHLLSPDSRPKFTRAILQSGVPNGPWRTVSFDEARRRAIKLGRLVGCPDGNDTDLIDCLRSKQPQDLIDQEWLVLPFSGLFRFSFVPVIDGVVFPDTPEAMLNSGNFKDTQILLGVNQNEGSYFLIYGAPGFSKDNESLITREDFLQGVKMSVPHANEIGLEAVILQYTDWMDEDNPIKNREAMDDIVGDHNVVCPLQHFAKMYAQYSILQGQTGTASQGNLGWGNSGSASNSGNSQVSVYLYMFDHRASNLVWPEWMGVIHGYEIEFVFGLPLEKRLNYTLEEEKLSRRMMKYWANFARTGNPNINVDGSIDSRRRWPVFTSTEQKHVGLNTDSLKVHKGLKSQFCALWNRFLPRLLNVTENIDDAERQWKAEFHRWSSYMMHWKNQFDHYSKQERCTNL

With `Nc1c2c(nc3c1C(c1ccccc1Br)n1c(=O)c4ccccc4c(=O)n1-3)CCCC2` (centres undefined), the figures for the IC50 in [1] and in [2] were 599 nM and > 100000 nM, respectively.
On the same counts, the results for `Nc1c2c(nc3c1C(c1cccc(Br)c1)n1c(=O)c4ccccc4c(=O)n1-3)CCCC2` (centres undefined) are 271 nM and > 100000 nM.
Turning to `O=c1c(O)c(-c2ccc(O)c(O)c2)oc2cc(O)cc(O)c12`, the outcome in data set [3] was Active.
As to `Nc1c2c(nc3c1C(c1ccc(Br)cc1)n1c(=O)c4ccccc4c(=O)n1-3)CCCC2` (centres undefined), the IC50 in data set [1] is 80 nM; in data set [2], > 100000 nM. The compound further registered a viability at 24 h, 1 µM in data set [4] of 99.8%. The compound also showed a viability at 24 h, 5 µM in data set [5] of 98.3%. This compound also had a viability at 24 h, 10 µM in data set [6] of 97.6%. This compound also yielded a viability at 24 h, 25 µM in data set [7] of 96.4%. The compound also showed a viability at 24 h, 50 µM in [8] of 95.7%. The compound further yielded a viability at 24 h, 100 µM in data set [9] of 92.8%. In addition, the viability at 24 h, 300 µM in data set [10] was 90%.
Take `CC1c2c(nc3c(c2N)CCCC3)-n2c(=O)c3ccccc3c(=O)n21` (centres undefined): the IC50 in data set [1] is 2150 nM; in data set [2], > 100000 nM.
Taken in the same sequence, the figures for `CCCCCC1c2c(nc3c(c2N)CCCC3)-n2c(=O)c3ccccc3c(=O)n21` (centres undefined) were 612 nM and > 100000 nM.
Take `Nc1c2c(nc3c1C(c1ccc(Cl)cc1)n1c(=O)c4ccccc4c(=O)n1-3)CCCC2` (centres undefined): the IC50 in [1] came to 60 nM; in [2], 96200 nM. The compound further gave a viability at 24 h, 1 µM in [4] of 98.6%. This compound also yielded a viability at 24 h, 5 µM in data set [5] of 96.2%. In [6], this compound returned a viability at 24 h, 10 µM of 95.1%. Moreover, the viability at 24 h, 25 µM in data set [7] was 94.4%. Further, the viability at 24 h, 50 µM in data set [8] amounted to 92.4%. In data set [9], this compound displayed a viability at 24 h, 100 µM of 91.3%. For the same compound, the viability at 24 h, 300 µM in data set [10] worked out at 89.3%.
Regarding `CCCC1c2c(nc3c(c2N)CCCC3)-n2c(=O)c3ccccc3c(=O)n21` (centres undefined), the results for the IC50 in [1] and in data set [2] were 1630 nM and > 100000 nM, respectively.
On the same counts, the results for `Nc1c2c(nc3c1C(c1cccc(O)c1)n1c(=O)c4ccccc4c(=O)n1-3)CCCC2` (centres undefined) are 160 nM and > 100000 nM.
Taken in the same sequence, the figures for `Nc1c2c(nc3c1C(c1ccccc1[N+](=O)[O-])n1c(=O)c4ccccc4c(=O)n1-3)CCCC2` (centres undefined) were 280 nM and > 100000 nM.
Taken in the same sequence, the figures for `Nc1c2c(nc3c1C(c1ccc([N+](=O)[O-])cc1)n1c(=O)c4ccccc4c(=O)n1-3)CCCC2` (centres undefined) were 310 nM and > 100000 nM.
`Nc1c2c(nc3c1C(c1ccccc1Cl)n1c(=O)c4ccccc4c(=O)n1-3)CCCC2` (centres undefined): the IC50 was 592 nM in data set [1] and > 100000 nM in [2].
On the same counts, the results for `Nc1c2c(nc3c1C(c1cccc([N+](=O)[O-])c1)n1c(=O)c4ccccc4c(=O)n1-3)CCCC2` (centres undefined) are 140 nM and > 100000 nM.
In the case of `Nc1c2c(nc3c1C(c1cccc(F)c1)n1c(=O)c4ccccc4c(=O)n1-3)CCCC2` (centres undefined), the IC50 came to 23 nM in data set [1] and 37200 nM in [2]. The Ratio IC50 in data set [11] worked out at 15. In addition, the viability at 24 h, 1 µM in data set [4] turned out to be 93.5%. The compound further returned a viability at 24 h, 5 µM in data set [5] of 90.9%. For the same compound, in data set [6], the viability at 24 h, 10 µM is 86.1%. The viability at 24 h, 25 µM in data set [7] is 82.7%. This compound displayed a viability at 24 h, 50 µM in data set [8] of 78.8%. In [9], this compound registered a viability at 24 h, 100 µM of 74.8%. Also, the viability at 24 h, 300 µM in data set [10] stood at 68.2%.
For `Cc1cccc(C2c3c(nc4c(c3N)CCCC4)-n3c(=O)c4ccccc4c(=O)n32)c1` (centres undefined), the IC50 in data set [1] was 467 nM; in [2], > 100000 nM.
Take `Nc1c2c(nc3c1C(c1ccc(F)cc1)n1c(=O)c4ccccc4c(=O)n1-3)CCCC2` (centres undefined): the values for the IC50 in data set [1] and in data set [2] were 69 nM and > 100000 nM, respectively. For the same compound, the viability at 24 h, 1 µM in data set [4] was determined as 91.2%. The viability at 24 h, 5 µM in [5] turned out to be 87.5%. In [6], this compound showed a viability at 24 h, 10 µM of 83.3%. In data set [7], the viability at 24 h, 25 µM came out at 80%. The viability at 24 h, 50 µM in [8] was determined as 75.9%. In [9], the viability at 24 h, 100 µM was 71.4%. The compound further returned a viability at 24 h, 300 µM in [10] of 66.4%.
With `Nc1c2c(nc3c1C(c1ccccc1F)n1c(=O)c4ccccc4c(=O)n1-3)CCCC2` (centres undefined), the 50% inhibitory concentration (IC50) in data set [1] was 618 nM; in data set [2], > 100000 nM.
Regarding `Cc1ccc(C2c3c(nc4c(c3N)CCCC4)-n3c(=O)c4ccccc4c(=O)n32)cc1` (centres undefined), the IC50 in data set [1] was 100 nM; in data set [2], > 100000 nM.
On the same counts, the results for `Cc1ccccc1C1c2c(nc3c(c2N)CCCC3)-n2c(=O)c3ccccc3c(=O)n21` (centres undefined) are 193 nM and > 100000 nM.
On the same counts, the results for `Nc1c2c(nc3c1C(c1ccccc1)n1c(=O)c4ccccc4c(=O)n1-3)CCCC2` (centres undefined) are 614 nM and > 100000 nM.
`COc1cc(OC)cc(C2c3c(nc4c(c3N)CCCC4)-n3c(=O)c4ccccc4c(=O)n32)c1` (centres undefined): the IC50 is 3370 nM in [1] and > 100000 nM in data set [2].
Regarding `COc1ccccc1C1c2c(nc3c(c2N)CCCC3)-n2c(=O)c3ccccc3c(=O)n21` (centres undefined), the IC50 amounted to 49 nM in data set [1] and 93300 nM in data set [2]. The compound also had a Ki in data set [12] of 12.6 nM. For the same compound, the outcome in [13] was Active. The outcome in data set [3] and in [14] was inactive. Moreover, in data set [15], the Activity result is “Non-Toxic”. In addition, the viability at 24 h, 1 µM in [4] came to 96.3%. Moreover, the viability at 24 h, 5 µM in [5] amounted to 95%. In addition, the viability at 24 h, 10 µM in data set [6] turned out to be 95.2%. This compound displayed a viability at 24 h, 25 µM in data set [7] of 90.2%. The compound further gave a viability at 24 h, 50 µM in data set [8] of 87.3%. For the same compound, the viability at 24 h, 100 µM in data set [9] was found to be 86.4%. This compound gave a viability at 24 h, 300 µM in [10] of 83%.
